Experiments:
[1] = Stability of the crystalline modification with regard to conversion into another form; settings: for stability of the crystalline modification: solid forms of topramezone compared
[2] = Stability of formulations (e.g. aqueous suspension concentrates) comprising the solid form; format: physicochemical; settings: compared between forms
[3] = Stability of the solvate at room temperature (release of solvent, conversion); format: physicochemical
Protocol: (§1) Crystallization of topramezone by evaporation of a solution of topramezone in a mixture of toluene with dichloromethane in the volume ratio 2:1 at temperatures below 30° C., in particular at temperatures in the range from 10 to 30° C. yields an unstable solvate V-S, which comprises 1 mol of toluene per mol of topramezone.
as §1, with “chlorobenzene” for “toluene”, “dichloromethane” for “dichloromethane in the volume ratio 2:1”, “VI-S,” for “V-S,”
Crystallization of topramezone by evaporation of a solution of topramezone in dichloromethane at temperatures below 30° C., in particular at temperatures in the range from 10 to 30° C. yields an unstable solvate VII-S, which comprises dichloromethane.

| Structure (SMILES) | stability of the crystalline modification [1] | stability of formulations which comprise the form [2] | further results |
| --- | --- | --- | --- |
| Cc1c(C(=O)c2cnn(C)c2O)ccc(S(C)(=O)=O)c1C1=NOCC1 [form I, [3-(4,5-dihydro-3-isoxazolyl)-2-methyl-4-(methylsulfonyl)phenyl]-(5-hydroxy-1-methyl-1H-pyrazol-4-yl)methanone] | stable | markedly higher | stability with regard to conversion into another form ([1]; compared to other solid forms): increased stability |
| Cc1c(C(=O)c2cnn(C)c2O)ccc(S(C)(=O)=O)c1C1=NOCC1 [form II, [3-(4,5-dihydro-3-isoxazolyl)-2-methyl-4-(methylsulfonyl)phenyl]-(5-hydroxy-1-methyl-1H-pyrazol-4-yl)methanone] | lower stability | lower stability |  |
| Cc1c(C(=O)c2cnn(C)c2O)ccc(S(C)(=O)=O)c1C1=NOCC1 [form III, [3-(4,5-dihydro-3-isoxazolyl)-2-methyl-4-(methylsulfonyl)phenyl]-(5-hydroxy-1-methyl-1H-pyrazol-4-yl)methanone] | lower stability | lower stability |  |
| Cc1c(C(=O)c2cnn(C)c2O)ccc(S(C)(=O)=O)c1C1=NOCC1 [form IV, [3-(4,5-dihydro-3-isoxazolyl)-2-methyl-4-(methylsulfonyl)phenyl]-(5-hydroxy-1-methyl-1H-pyrazol-4-yl)methanone] | lower stability | lower stability |  |
| Cc1c(C(=O)c2cnn(C)c2O)ccc(S(C)(=O)=O)c1C1=NOCC1 [form V-S] | lower stability |  | behaviour of the solvate at room temperature ([3]; listed as solvate V-S): releasing the solvent again and then forms a mixture of the forms II and IV; stability of formulations which comprise the form ([2]; listed as solvate V-S): lower stability |
| Cc1c(C(=O)c2cnn(C)c2O)ccc(S(C)(=O)=O)c1C1=NOCC1 [form VI-S] | lower stability |  | behaviour of the solvate at room temperature ([3]; listed as solvate VI-S): releasing the solvent again and then forms the form II; stability of formulations which comprise the form ([2]; listed as solvate VI-S): lower stability |
| Cc1c(C(=O)c2cnn(C)c2O)ccc(S(C)(=O)=O)c1C1=NOCC1 [form VII-S] | lower stability |  | behaviour of the solvate at room temperature ([3]; listed as solvate VII-S): releasing the solvent again and then forms the form I; stability of formulations which comprise the form ([2]; listed as solvate VII-S): lower stability |
| Cc1c(C(=O)c2cnn(C)c2O)ccc(S(C)(=O)=O)c1C1=NOCC1 [form VIII, [3-(4,5-dihydro-3-isoxazolyl)-2-methyl-4-(methylsulfonyl)phenyl]-(5-hydroxy-1-methyl-1H-pyrazol-4-yl)methanone] | lower stability | lower stability |  |

Reference: patent publication US20100197502A1, “Crystalline form of [3-(4,5-dihydro-3-isoxazolyl)-2-methyl-4-(methylsulfonyl)phenyl]-(5-hydroxy-1-methyl-1H-pyrazol-4-yl)methanone” (priority 2007, published 2010)
